36 molecules from patent US8815857B2 (Boehringer Ingelheim International GmbH, priority 2011, dated 2014) can be followed below.

Data set [1] concerns the target T1, Recombinant human soluble guanylate cyclase (sGC), alpha 1 / beta 1 subunits, heme-free (Homo sapiens, UniProt Q02108+Q02153).
T1 construct: histidine tag (C); made in house; host or cells: Sf9 insect cells (baculovirus coinfection)
T1 sequence (Q02108 1-690 partner): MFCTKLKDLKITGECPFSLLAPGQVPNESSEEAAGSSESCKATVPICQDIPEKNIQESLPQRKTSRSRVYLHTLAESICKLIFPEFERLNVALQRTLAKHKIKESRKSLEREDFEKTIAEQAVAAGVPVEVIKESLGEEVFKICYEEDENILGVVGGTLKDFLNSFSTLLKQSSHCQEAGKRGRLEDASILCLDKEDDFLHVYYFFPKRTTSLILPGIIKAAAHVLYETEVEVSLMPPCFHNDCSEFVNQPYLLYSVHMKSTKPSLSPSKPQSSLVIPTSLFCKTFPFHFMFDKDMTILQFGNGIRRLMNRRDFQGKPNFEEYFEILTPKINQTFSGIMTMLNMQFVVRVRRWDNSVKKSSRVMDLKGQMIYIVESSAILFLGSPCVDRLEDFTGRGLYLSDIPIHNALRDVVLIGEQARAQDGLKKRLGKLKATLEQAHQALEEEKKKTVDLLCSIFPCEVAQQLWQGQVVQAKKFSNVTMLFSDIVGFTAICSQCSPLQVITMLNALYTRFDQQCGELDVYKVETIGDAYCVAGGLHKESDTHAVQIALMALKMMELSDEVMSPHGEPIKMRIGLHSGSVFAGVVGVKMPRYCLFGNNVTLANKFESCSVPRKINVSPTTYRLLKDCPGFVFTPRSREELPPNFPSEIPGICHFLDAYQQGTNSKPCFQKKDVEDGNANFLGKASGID
T1 sequence (Q02153 1-619): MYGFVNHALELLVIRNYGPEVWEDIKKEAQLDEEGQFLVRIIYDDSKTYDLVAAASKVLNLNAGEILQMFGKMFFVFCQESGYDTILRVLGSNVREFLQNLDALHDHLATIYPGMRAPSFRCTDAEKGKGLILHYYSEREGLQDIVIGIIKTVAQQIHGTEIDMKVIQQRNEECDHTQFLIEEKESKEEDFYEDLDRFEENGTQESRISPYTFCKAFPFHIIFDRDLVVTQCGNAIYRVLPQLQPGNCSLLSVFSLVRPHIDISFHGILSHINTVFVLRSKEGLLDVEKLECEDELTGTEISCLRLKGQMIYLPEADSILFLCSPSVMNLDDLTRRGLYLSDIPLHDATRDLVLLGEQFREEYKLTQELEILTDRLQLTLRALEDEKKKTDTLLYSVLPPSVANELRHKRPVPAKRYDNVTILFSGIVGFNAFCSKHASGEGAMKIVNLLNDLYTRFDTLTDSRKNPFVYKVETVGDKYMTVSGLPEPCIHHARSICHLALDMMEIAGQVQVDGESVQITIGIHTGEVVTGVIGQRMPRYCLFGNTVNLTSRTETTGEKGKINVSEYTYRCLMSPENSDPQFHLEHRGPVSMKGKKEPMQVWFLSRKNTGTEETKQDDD
The data set is described as follows: Molecular assay: cGMP formation by heme-free recombinant sGC (CisBio cGMP detection kit). The format is biochemical. Conditions: 300 pM heme-free sGC, 37° C., 60 min, cGMP readout; read-out: EC50 nM, Activity of Compounds in Molecular Assay. The procedure: Recombinant human soluble guanylate cyclase (sGC) is purified from Sf9 insect cells coinfected with baculoviruses expressing the alpha 1 or beta 1 subunit of sGC, both with a C-terminal histidine tag. Heme-free sGC is prepared by treating cell lysate with a final concentration of 0.5% Tween 20 prior to purification on a nickel affinity column.
sGC catalyzes the conversion of guanosine-5′-triphosphate (GTP) to cyclic guanosine monophosphate (cGMP). The activity of sGC is measured in vitro using the commercially available CisBio cGMP detection kit (catalog # 62GM2PEB) in a 384 well format. In brief, 300 pM heme-free sGC is incubated in reaction buffer (50 mM MOPS pH 6.8, 0.2 N KOH, 50 mM NaCl, 2 mM MgCl2, 0.1% BSA, 1.25 mM IBMX, 0.25 mM TCEP, 50 nM GTP) in the presence or absence of dilutions of test compounds diluted in DMSO (final concentration of 1%) in a volume of 10 microL at 37° C. for 60 min. Undiluted reaction products or an 80-fold dilution of reaction products (10 microL of either) prepared in reaction buffer containing 0.2 mM TCEP and 10 mM EDTA is mixed with 5 microL of d2-cGMP plus 5 microL of Eu^3+ cryptate-labeled anti-cGMP, each diluted in buffer containing 0.1 M KPO4 pH 7.5, 0.4 M KF, 20 mM EDTA, 0.2% BSA. After a one h incubation at room temperature in the dark, the mixtures are quantified on an EnVision plate reader (PerkinElmer) according to manufacturer instructions (laser excitation 337 nm, emission 620 and 665 nm). The ratio at each compound concentration is converted to nM cGMP using the linear portion of a calibration curve. Log compound concentration is plotted against combined undiluted and diluted nM cGMP values to determine the EC50 for each curve.

Data set [2] can be described thus: Assessment of solubility: HT solubility in pION buffer, UV spectrophotometry. Conditions: for solubility: kinetic from dmso stock.
The mark [3] stands for this setting: pION system solution buffer, pH 4.5, pH 4.5, aqueous buffer, Solubility (pH 4.5), pH 4.5 buffer, 16-19 h incubation, 1.0% DMSO.
Where [4] appears, read: pION system solution buffer, pH 7.4, pH 7.4, aqueous buffer, Solubility (pH 7.4), pH 7.4 buffer, 16-19 h incubation, 1.0% DMSO.

The structures appear in SMILES notation. ≈ marks a conversion by molar mass, not a printed value.

`Cc1cc(CN2CCOCC2)ccc1COc1ccc(F)cc1-c1csc(C2CCC(C(=O)O)CC2)n1` (stereo not shown) [Compound 190]: the EC50 in data set [1] turned out to be 2500 nM.
For `Cc1cc(CN2CCS(=O)(=O)CC2)ccc1COc1ccccc1-c1csc(N2CC3CCC(C2)C3C(=O)O)n1` (stereo not shown) [Compound 120], in data set [1], the EC50 is 18 nM.
With `COCCN(C)C(=O)c1ccc(COc2ccc(C)cc2-c2csc(N3CCC(C(=O)O)CC3)n2)c(C#N)c1` [Compound 178], in data set [1], the concentration for a half-maximal effect (EC50) was 270 nM.
With `Cc1cc(C(=O)N2CCCCC2)ccc1COc1ccc(C#N)cc1-c1csc(C2=CCC(C(=O)O)CC2)n1` (stereo not shown) [Compound 184], the EC50 in data set [1] was found to be 1800 nM.
Take `Cc1ccc(OCc2ccc(CN3CCS(=O)(=O)CC3)cc2C)c(-c2csc(N3CCC(C(=O)O)CC3C)n2)c1` (stereo not shown) [Compound 124]: the EC50 in data set [1] was determined as 30 nM.
The same measure, in the same setting: in the case of `Cc1cc(CN2CCOCC2)ccc1COc1ccc(C#N)cc1-c1csc(C2=CCC(C(=O)O)CC2)n1` (stereo not shown) [Compound 189] it was 9000 nM; in that of `Cc1ccc(OCc2ccc(C(=O)N(C)C3CCCCC3)cc2C)c(-c2csc(N3CCC(C(=O)O)CC3)n2)c1` [Compound 164], 55 nM.
As for `Cc1cc(CN2CCCCC2)ccc1COc1ccc(C#N)cc1-c1csc(N2CCC(C(=O)O)CC2)n1` [Compound 169], the solubility in data set [2] (setting [3]) and in data set [2] (setting [4]) was above 57 µg/mL each time.
`Cc1cc(CN2CCOCC2)ccc1COc1ccc(Cl)cc1-c1csc(N2CC3C(C2)C3C(=O)O)n1` (stereo not shown) [Compound 187]: the EC50 in data set [1] is 390 nM.
On the same count and under the same terms, in the case of `Cc1cc(C(=O)N2CCCCC2)ccc1COc1ccc(Cl)cc1-c1csc(C2CCC(C(=O)O)CC2)n1` (stereo not shown) [Compound 182] it was 1600 nM.
`Cc1ccc(OCc2ccc(CN3CCOCC3)cc2C)c(-c2csc(N3CCC(C(=O)O)C(C(F)(F)F)C3)n2)c1` (stereo not shown) [Compound 213]: the results for the solubility in data set [2] (setting [3]) and in data set [2] (setting [4]) were 32 µg/mL (≈ 54.3 µM) and 41 µg/mL (≈ 69.5 µM), respectively.
As for `Cc1cc(CN2CCOCC2)ccc1COc1ccc(F)cc1-c1csc(C2=CCC(C(=O)O)CC2)n1` (stereo not shown) [Compound 191], in data set [1], the EC50 is 530 nM.
Turning to `Cc1ccc(OCc2ccc(CN3CCN(C(=O)C(C)(C)C)CC3)cc2C)c(-c2csc(N3CCC(C(=O)O)CC3)n2)c1` [Compound 195], in data set [1], the EC50 was found to be 83 nM.
For `Cc1ccc(OCc2ccc(CN3CCOCC3)cc2C)c(-c2csc(N3CCC[C@@H](C(=O)O)C3)n2)c1` [Compound 19], the solubility in data set [2] (setting [3]) and in data set [2] (setting [4]) was above 52 µg/mL in each case.
For `Cc1cc(CN2CCS(=O)(=O)CC2)ccc1COc1ccc(F)cc1-c1csc(N2CCC(C(=O)O)C(C(F)(F)F)C2)n1` (stereo not shown) [Compound 155], the solubility in data set [2] (setting [3]) is 0.3 µg/mL (≈ 0.468 µM); in data set [2] (setting [4]), above 63 µg/mL.
On to `Cc1ccc(OCc2ccc(C(=O)NC3CCCCC3)cc2C)c(-c2csc(N3CCC(C(=O)O)CC3)n2)c1` [Compound 163], for which the EC50 in data set [1] turned out to be 750 nM.
Regarding `Cc1ccc(OCc2ccc(CN3CCOCC3)cc2C)c(-c2csc(N3CC[C@H](C(=O)O)[C@H](C)C3)n2)c1` [Compound 176], the concentration for a half-maximal effect (EC50) in data set [1] worked out at 160 nM.
Take `Cc1ccc(OCc2ccc(CN3CCCCC3)cc2C)c(-c2csc(N3CCC(C(=O)O)CC3)n2)c1` [Compound 18]: the solubility in data set [2] (setting [3]) and in data set [2] (setting [4]) was above 63 µg/mL each time.
As for `Cc1cc(CN2CCOCC2)ccc1COc1ccc(Cl)cc1-c1csc(C2=CCC(C(=O)O)CC2)n1` (stereo not shown) [Compound 188], in data set [1], the EC50 came to 830 nM.
In the case of `Cc1cc(CN2CCS(=O)(=O)CC2)ccc1COc1ccc(Cl)cc1-c1csc(N2CC3C(C2)C3C(=O)O)n1` (stereo not shown) [Compound 128], the results for the solubility in data set [2] (setting [3]) and in data set [2] (setting [4]) were 0.45 µg/mL (≈ 0.765 µM) and above 58 µg/mL, respectively.
Take `Cc1ccc(OCc2ccc(CN3CCC(O)CC3)cc2C)c(-c2csc(N3CCC(C(=O)O)CC3)n2)c1` [Compound 175]: the solubility in data set [2] (setting [3]) and in data set [2] (setting [4]) was above 55 µg/mL throughout.
`Cc1cc(CN2CCS(=O)(=O)CC2)ccc1COc1ccc(C#N)cc1-c1csc(N2CC3C(C2)C3C(=O)O)n1` (stereo not shown) [Compound 116]: in data set [1], the EC50 came to 1100 nM.
In the case of `Cc1ccc(OCc2ccc(C(=O)N(C)C)cc2C)c(-c2csc(N3CCC(C(=O)O)CC3)n2)c1` [Compound 294], the EC50 in data set [1] was found to be 290 nM.
The same measure, in the same setting: in the case of `COCCCNC(=O)c1ccc(COc2ccc(C)cc2-c2csc(N3CCC(C(=O)O)CC3)n2)c(C)c1` [Compound 159] it was 1900 nM.
For the molecule `CCc1cc(C(=O)N2CCN(C)C(=O)C2)ccc1COc1ccc(C)cc1-c1csc(N2C[C@H]3CC[C@@H](C2)[C@H]3C(=O)O)n1` [Compound 295], the solubility was 60 µg/mL (≈ 99.5 µM) in data set [2] (pH 6.8, aqueous buffer, Solubility (pH 6.8), pH 6.8) and 0.45 µg/mL (≈ 0.747 µM) in data set [2] (setting [3]).
`Cc1ccc(OCc2ccc(C(=O)N(C)CCN(C)C)cc2C)c(-c2csc(N3CCC(C(=O)O)CC3)n2)c1` [Compound 160]: the EC50 in data set [1] is 2800 nM.
As for `Cc1ccc(OCc2ccc(CN3CCOCC3)cc2C)c(-c2csc(N3CCC(C(=O)O)CC3C)n2)c1` (stereo not shown) [Compound 177], the EC50 in data set [1] is 170 nM.
Still for that read-out and setting: in the case of `Cc1ccc(OCc2ccc(C(=O)N(C)CC3CCCCC3)cc2C)c(-c2csc(N3CCC(C(=O)O)CC3)n2)c1` [Compound 161] it was 91 nM; in that of `Cc1cc(CN2CCOCC2)ccc1COc1ccccc1-c1csc(C2=CCC(C(=O)O)CC2)n1` (stereo not shown) [Compound 193], 2400 nM.
For the molecule `COCCN(C)Cc1ccc(COc2ccc(C)cc2-c2csc(N3CCC(C(=O)O)CC3)n2)c(C)c1` [Compound 27], the solubility in data set [2] (setting [3]) and in data set [2] (setting [4]) was above 63 µg/mL throughout.
For `Cc1cc(CN2CCS(=O)(=O)CC2)ccc1COc1ccc(Cl)cc1-c1csc(N2CCC(C(=O)O)C(C)C2)n1` (stereo not shown) [Compound 144], in data set [1], the 50% effective concentration (EC50) was found to be 54 nM.
Regarding `COCCCN(C)C(=O)c1ccc(COc2ccc(C)cc2-c2csc(N3CCC(C(=O)O)CC3)n2)c(C)c1` [Compound 162], the EC50 in data set [1] amounted to 71 nM.
In the case of `Cc1cc(CN2CCCCC2)ccc1COc1c(C)cccc1-c1csc(N2CCC(C(=O)O)CC2)n1` [Compound 16], the results for the solubility in data set [2] (setting [3]) and in data set [2] (setting [4]) were above 51 µg/mL and 33 µg/mL (≈ 63.5 µM), respectively.
Turning to `Cc1ccc(OCc2ccc(C(=O)N3CCCC3)cc2C)c(-c2csc(N3CCC(C(=O)O)CC3)n2)c1` [Compound 7], the “Solubility (pH 4.5)” value in data set [2] (pH 4.5 buffer, 16-19 h incubation, 1.0% DMSO) is recorded as above 62 μg/mL. This molecule came in with a solubility in data set [2] (setting [4]) of 42 µg/mL (≈ 80.8 µM).
Take `Cc1cc(CN2CCC(O)CC2)ccc1COc1ccc(C#N)cc1-c1csc(N2CCC(C(=O)O)CC2)n1` [Compound 170]: the solubility was 37 µg/mL (≈ 67.7 µM) in data set [2] (setting [3]) and 24 µg/mL (≈ 43.9 µM) in data set [2] (setting [4]).
On to `Cc1cc(CN2CCC(C(N)=O)CC2)ccc1COc1c(C)cccc1-c1csc(N2CCC(C(=O)O)CC2)n1` [Compound 93], for which the solubility in data set [2] (setting [3]) and in data set [2] (setting [4]) was above 56 µg/mL throughout.
